The source of these data is article PMC12654176 (Microorganisms, 2025).

Molecules are shown by their SMILES.

For the assay, the system named is H10NX AIVs NA activity. The class given is biochemical.

For the compound `CC(=O)N[C@H]1[C@H]([C@H](O)[C@H](O)CO)OC(C(=O)O)=C[C@@H]1N=C(N)N` [Zanamivir, zanamivir], the “susceptibility of H10NX isolates to the drug (phenotypic assay)” value is given as “sensitive”. Further, where the note is “read-out: mean IC50 values, range over the H10NX isolates tested”, the IC50 was in the range of 0.7 to 1.3 nM.
